{
  "source": "patent US7964613B2",
  "about": "(Asahi Kasei Pharma Corporation, priority 2007, dated 2011)",
  "key": {"[1]": {"tested_on": "intraocular pressure", "assay": "Intraocular pressure reduction enhancing action in monkey", "format": "in vivo", "settings": "cynomolgus monkey, 0.01 weight % aqueous solution, 30 μL", "protocol": "Moreover, as for the test compound used for combination use, similar effect can be obtained also with the compounds of the present invention represented with the example numbers mentioned in Test Example 3. The test is performed by using cynomolgus monkeys sufficiently naturalized for the operation of fixation on a monkey chair and ophathalmotonometry.\nAs the test compound, the 19-1 compound is dissolved in physiological saline, and the solution is neutralized by addition of sodium hydroxide (pH 7.0 to 8.0) to prepare a 0.01 weight % aqueous solution (19-1 compound aqueous solution). As a drug for combination use, latanoprost (trade name: Xalatan, Pfizer) is used as the marketed formulation per se. The test aqueous solution or the drug for combination use is instilled to the left eye, and the right eye is not treated (control eye). […] After initial intraocular pressure values of the monkeys are measured for each group, 30 μL of physiological saline is instilled to the control group, single drug group 1, and single drug group 2, and latanoprost is instilled in the same volume to the combination use group. […] Then, the intraocular pressure is measured over time for each group."}, "[2]": {"tested_on": "intraocular pressure", "assay": "Rabbit intraocular pressure reduction enhancing action, Test Example 7-2 (combination use with timolol maleate)", "format": "in vivo, Japanese white rabbit", "settings": "Table 6; 19-1 compound 0.01 weight % aqueous solution 50 μL, Timoptol 50 μL; difference relative to control group at 1, 2, 4 hours; 12 rabbits", "protocol": "As a test compound, the 19-1 compound was dissolved in physiological saline, and the solution was neutralized by addition of sodium hydroxide (pH 7.0 to 8.0) to prepare a 0.01 weight % aqueous solution (19-1 compound aqueous solution). As a drug for combination use, timolol maleate (trade name: Timoptol, Santen Pharmaceutical) was used as an adrenergic receptor β blocker, as the marketed formulation as it was.\nA Japanese white rabbit having a body weight of about 2 kg was placed in a positioner and naturalized for one week before the experiment. An opthalmologic local anesthesant (Benoxil) was administered to both eyes, and then intraocular pressure before instillation was measured by using a tonometer (Classic 30, Solan). […] The intraocular pressure thereafter was measured for each group 1, 2 and 4 hours after the second administration of the test compound, and the difference of the measured values at each measurement time for the each group and the control group was considered an intraocular pressure reduction value of each group. The largest difference of the intraocular pressure values relative to the control group among those of the measured values of the measurement times was considered the maximum intraocular pressure reduction value (max ? IOP) of each drug group."}, "[3]": {"tested_on": "intraocular pressure", "assay": "Rabbit intraocular pressure reduction enhancing action, Test Example 7-1 (combination use)", "format": "in vivo, Japanese white rabbit", "settings": "19-1 compound 0.01 weight % aqueous solution 50 μL, left-right eye difference at 2, 4, 6 hours, six rabbits", "protocol": "However, the effect is not limited to the 19-1 compound, and the ophthalmic solution concentration of the 19-1 compound is not limited to those used in this test example. Moreover, as for the test compound used for combination use, similar effect can be obtained also with the compounds of the present invention represented with the example numbers mentioned in Test Example 3.\nAs a test compound, the 19-1 compound was dissolved in physiological saline, and the solution was neutralized by addition of sodium hydroxide (pH 7.0 to 8.0) to prepare a 0.01 weight % aqueous solution (19-1 compound aqueous solution). As the drugs for combination use, isopropyl unoprostone (trade name: Rescula, Santen Pharmaceutical) was used as a prostaglandin-related drug, and brinzolamide hydrochloride (trade name: Azopt, Alcon Japan) was used as […], as the marketed formulations as they were.\nA Japanese white rabbit having a body weight of about 2 kg was placed in a positioner and naturalized for one week before the experiment. An opthalmologic local anesthesant (Benoxil) was administered to both eyes, and then intraocular pressure before instillation was measured by using a tonometer (Classic 30, Solan). A test aqueous solution or the drug for combination use was administered to the left eye, and the right eye was not treated (control eye). The test groups consisted of (1) control group, (2) group instilled only with the 19-1 compound aqueous solution (single drug group 1), (3) group instilled only with the drug for combination use (single drug group 2), and (4) group instilled with the drug for combination use and the 19-1 compound aqueous solution (combination use group), and six rabbits were used for each group. As for the rabbits of these groups, 50 μL of physiological saline was first instilled to the control group, single drug group 1, and single drug group 2, and the drug for combination use was first instilled in the same volume to the combination use group. […] The intraocular pressure thereafter was measured for each group 2, 4 and 6 hours after the second administration of the test compound, and the difference of the measured values for the left and right eyes at each measurement time was considered an intraocular pressure reduction value of each group. The largest difference of the intraocular pressure values for the left and right eyes among those of the measured values of the measurement times was considered the maximum intraocular pressure reduction value (max ? IOP) of each drug group."}},
  "data": [
    {"smiles": "N[C@H]1CCN(S(=O)(=O)c2cccc3cncc(Cl)c23)C1", "note": "[Example 19-1, (S)-3-Amino-1-(4-chloro-5-isoquinolinesulfonyl)pyrrolidine]", "values": [
      {"measurement": "intraocular pressure reducing action in single drug group 1", "setting": "[1]", "result": "exceeding that of the control group"},
      {"measurement": "Max IOP (maximum intraocular pressure reduction value)", "setting": "[2]", "result": 4.1, "unit": "mmHg"},
      {"measurement": "Max IOP (maximum intraocular pressure reduction value)", "setting": "[3]; Table 4, Azopt 50 μL", "result": 4.3, "unit": "mmHg"},
      {"measurement": "Max IOP (maximum intraocular pressure reduction value)", "setting": "[3]; Table 5, Rescula 50 μL", "result": 4.3, "unit": "mmHg"}
    ]}
  ]
}
